Data as given in patent US20030068615A1, “Polypeptides that bind HIV gp120 and related nucleic acids, antibodies, compositions, and methods of use” (priority 1999, published 2003).
Like-named read-outs stand apart in the source and are kept apart here.

Molecular target: HIV-1LAI envelope gp120 (Human immunodeficiency virus type 1 group M subtype B, UniProt P03377)
Assay type: binding
Conditions: for Counts per 20′ Average-background: CCR5 18-mer scan, radiolabeled HIV-1LAI gp120; for Binding Results For Window Length (counts bound-background), 9 / Binding Results For Window Length (counts bound-background), 12 / Binding Results For Window Length (counts bound-background), 15 / Binding Results For Window Length (counts bound-background), 18: STRL33 amino terminus; for Binding Results For Window Length (counts bound-background), 9: 9-mer starting at the first residue of the printed sequence; for Binding Results For Window Length (counts bound-background), 12: 12-mer starting at the first residue of the printed sequence; for Binding Results For Window Length (counts bound-background), 15: 15-mer starting at the first residue of the printed sequence; for Binding Results For Window Length (counts bound-background), 18: 18-mer starting at the first residue of the printed sequence; for number of radioactive decays (counts) counted: human CD4 21-mer scan, empty control 2075
[1] = STRL33 18-mer scan, background subtracted, first of two count columns
[2] = STRL33 18-mer scan, background subtracted, second of two count columns
[3] = CXCR4 18-mer scan, background subtracted, empty control 0
[4] = CXCR4 18-mer scan, empty control 412
[5] = Panel D, 9-mers and 12-mers of CD4, empty control […]
[6] = Panel B, 15-mers and 18-mers of CD4, empty control 575
[7] = Panel E, 9-mers and 12-mers of CD4, empty control 571
[8] = Panel C, 15-mers and 18-mers of CD4, empty control 556

HCCINPIIYAFVGEKFRN [CCR5 segment 289-] was tested, and the “Counts per 20′ Average-background” value (background subtracted) was 200 counts per 20′.
HDYHEDYGFSSFNDSSQE was tested, and the “Binding Results For Window Length (counts bound-background), 9” value (background subtracted) was 708 counts, the “Binding Results For Window Length (counts bound-background), 12” value (background subtracted) was 1427 counts and the “Binding Results For Window Length (counts bound-background), 15” value (background subtracted) was 1772 counts. The “Binding Results For Window Length (counts bound-background), 18” value (background subtracted) was 1500 counts.
With HEDYGFSSFNDSSQEEHQ the “Binding Results For Window Length (counts bound-background), 9” value (background subtracted) was 729 counts, the “Binding Results For Window Length (counts bound-background), 12” value (background subtracted) was 1077 counts and the “Binding Results For Window Length (counts bound-background), 15” value (background subtracted) was 947 counts. For the same sequence, the “Binding Results For Window Length (counts bound-background), 18” value (background subtracted) was 537 counts.
“HEWVFGQVMCKSLLGIYT [STRL33 segment 93-110]” was tested, and the “radioactive counts recorded in twenty minutes” value (shortened to “radioactive counts recorded”) [1] was 3391.5 counts and the “radioactive counts recorded” value [2] was 3466.5 counts.
HFPYSQYQFWKNFQTLKI was tested, and the “Counts per 20′ Average-background” value (background subtracted) was 1008 counts per 20′.
In the case of “HKWISITEALAFFHCCLN [CXCR4 segment 281-298]”, the “radioactive counts recorded” value [3] is reported as 163 counts and the “radioactive counts recorded” value [4] is reported as 575 counts.
HLLQGQSLT was tested, and the “COUNTS of radiolabeled gp120 retained” value [5] was 564 counts.
With HLLQGQSLTLTL the “COUNTS of radiolabeled gp120 retained” value [5] was 701 counts.
In the case of HLLQGQSLTLTLESP, the “COUNTS of radiolabeled gp120 retained” value [6] is reported as 1277 counts.
For “HLTLPQALPQYAGSGNLTLAL [human CD4 281-301]”, the “number of radioactive decays (counts) counted” value was 2394 counts.
With HQAFLQFSK the “Binding Results For Window Length (counts bound-background), 9” value (background subtracted) was 2761 counts.
With HSSVSTESESSSFHSS the “radioactive counts recorded” value [3] was 103 counts and the “radioactive counts recorded” value [4] was 515 counts.
In the case of “HVIYTVNLYSSVLILAFI [CXCR4 segment 113-130]”, the “radioactive counts recorded” value [3] is reported as 118 counts and the “radioactive counts recorded” value [4] is reported as 530 counts.
In the case of “HWEYYAMTSFHYTIMVTE [STRL33 segment 257-274]”, the “radioactive counts recorded” value [1] is reported as 2040.5 counts and the “radioactive counts recorded” value [2] is reported as 3065.5 counts.
In the case of “ICDRFYPNDLWVVVFQFQ [CXCR4 segment 185-202]”, the “radioactive counts recorded” value [3] is reported as 306 counts and the “radioactive counts recorded” value [4] is reported as 718 counts.
ICEVEDQKE was tested, and the “COUNTS of radiolabeled gp120 retained” value [5] was 596 counts.
ICEVEDQKEEVQ was tested, and the “COUNTS of radiolabeled gp120 retained” value [5] was 585 counts.
ICEVEDQKEEVQLLV was tested, and the “COUNTS of radiolabeled gp120 retained” value [6] was 1084 counts.
In the case of ICEVEDQKEEVQLLVFGL, the “COUNTS of radiolabeled gp120 retained” value [6] is reported as 3898 counts.
IDIVVLAFQ was tested, and the “COUNTS of radiolabeled gp120 retained” value [7] was 691 counts.
IDIVVLAFQKAS was tested, and the “COUNTS of radiolabeled gp120 retained” value [7] was 630 counts.
With IDIVVLAFQKASSIV the “COUNTS of radiolabeled gp120 retained” value [8] was 865 counts.
In the case of IDIVVLAFQKASSIVYKK, the “COUNTS of radiolabeled gp120 retained” value [8] is reported as 711 counts.
For IDIVVLAFQKASSIVYKKEGE, the “COUNTS of radiolabeled gp120 retained” value (Panel A, 21-mers of CD4, empty control 515 and 617) was 962 counts.
“IDSFILLEIIKQGCEFEN [CXCR4 segment 261-278]” was tested, and the “radioactive counts recorded” value [3] was 3472 counts and the “radioactive counts recorded” value [4] was 3884 counts.
For IEDSDTYIC, the “COUNTS of radiolabeled gp120 retained” value [5] was 567 counts.
With IEDSDTYICEVE the “COUNTS of radiolabeled gp120 retained” value [5] was 1107 counts.
In the case of IEDSDTYICEVEDQK, the “COUNTS of radiolabeled gp120 retained” value [6] is reported as 1143 counts.
For IEDSDTYICEVEDQKEEV, the “COUNTS of radiolabeled gp120 retained” value [6] was 1230 counts.
IFANVSEADDRYICDRFY was tested, and the “radioactive counts recorded” value [3] was 267 counts and the “radioactive counts recorded” value [4] was 679 counts.
IFFCVRCRHRRRQAERMSQIK was tested, and the “number of radioactive decays (counts) counted” value was 2085 counts.
With “IFLVMAVFLLTQMPFNLM [STRL33 segment 233-250]” the “radioactive counts recorded” value [1] was 386.5 counts and the “radioactive counts recorded” value [2] was 772.5 counts.
With IFTIMIVYFLFWAPYNIV [CCR5 segment 237-] the “Counts per 20′ Average-background” value (background subtracted) was 121 counts per 20′.
For IFTRSQKEGLHYTCSSHF, the “Counts per 20′ Average-background” value (background subtracted) was 98 counts per 20′.
In the case of “IFYHKLQSLTDVFLVNLP [STRL33 segment 57-74]”, the “radioactive counts recorded” value [1] is reported as 1275.5 counts and the “radioactive counts recorded” value [2] is reported as 1256.5 counts.
“IGISIDSFILLEIIKQGC [CXCR4 segment 257-274]” was tested, and the “radioactive counts recorded” value [3] was 734 counts and the “radioactive counts recorded” value [4] was 1146 counts.
IIISKLSHSKGHQKRKAL was tested, and the “radioactive counts recorded” value [3] was 157 counts and the “radioactive counts recorded” value [4] was 569 counts.
With IIKNLKIED the “COUNTS of radiolabeled gp120 retained” value [5] was 658 counts.
For IIKNLKIEDSDT, the “COUNTS of radiolabeled gp120 retained” value [5] was 511 counts.
For IIKNLKIEDSDTYIC, the “COUNTS of radiolabeled gp120 retained” value [6] was 664 counts.
For IIKNLKIEDSDTYICEVE, the “COUNTS of radiolabeled gp120 retained” value [6] was 751 counts.
For “IIKQGCEFENTVEKWISI [CXCR4 segment 269-286]”, the “radioactive counts recorded” value [3] was 106 counts and the “radioactive counts recorded” value [4] was 518 counts.
With IKNLKIEDS the “COUNTS of radiolabeled gp120 retained” value [5] was 557 counts.
IKNLKIEDSDTY was tested, and the “COUNTS of radiolabeled gp120 retained” value [5] was 574 counts.
In the case of IKNLKIEDSDTYICE, the “COUNTS of radiolabeled gp120 retained” value [6] is reported as 568 counts.
In the case of IKNLKIEDSDTYICEVED, the “COUNTS of radiolabeled gp120 retained” value [6] is reported as 699 counts.
In the case of “ILAFFACWLPYYIGISID [CXCR4 segment 245-262]”, the “radioactive counts recorded” value [3] is reported as 184 counts and the “radioactive counts recorded” value [4] is reported as 596 counts.
ILKTLLRCRNEKKRHRAV was tested, and the “Counts per 20′ Average-background” value (background subtracted) was 19 counts per 20′.
With “ILLEIIKQGCEFENTVHK [CXCR4 segment 265-282]” the “radioactive counts recorded” value [3] was 117 counts and the “radioactive counts recorded” value [4] was 529 counts.
